Measured values as given in US12303509B2, “Compounds for the treatment of BRAF-associated diseases and disorders” (Pfizer Inc., priority 2020, dated 2025).
Structures can show the parent of a compound that is named as a salt.

Tests used:
BCRP = BCRP (Homo sapiens (Human), UniProt Q9UNQ0); experiment: BCRP MDCKII permeability assay: efflux ratio; format: in vitro ADME; settings: dog
P-gp (MDR1) = P-gp (MDR1) (Homo sapiens (Human), UniProt P08183); experiment: MDR1 LLC-PK1 permeability assay: efflux ratio; format: in vitro ADME; settings: pig
Text: (§1) Final organic concentration in the assay was 1%.

[1] = target: full-length FLAG-tagged B-Raf(V600E) (Homo sapiens (Human), UniProt P15056, V600E); experiment: BRAF V600E enzyme assay (TR-FRET competitive displacement); format: binding; settings: averaged IC50; TR-FRET tracer displacement, 60 min
Description: A competitive displacement assay was configured for B-Raf that monitors the amount of a fluorescently-tagged “tracer” bound to B-Raf via TR-FRET from an anti-tag Eu-labeled antibody also bound to B-Raf. For full-length FLAG-tagged B-Raf(V600E), the assay mixtures consisted of 25 mM K^+HEPES, pH 7.4, 10 mM MgCl2, 0.01% Triton X-100, 1 mM DTT, 2% DMSO (from compound), 50 nM Tracer 1710 (ThermoFisher, PR9176A), 0.5 nM Eu anti-FLAG (M2)-cryptate Ab (Cisbio, 61FG2KLB) and 5 nM full-length, N-terminally FLAG-tagged B-Raf(V600E) (Origene Technologies, TP700031. Compounds were typically diluted in DMSO across an 11-point dosing range created using a 3-fold serial dilution protocol at a top dose of 10 μM. The assay was run in 384-well, polystyrene, low-volume, non-treated, white microtiter plates (Costar 4512) in a final volume of 12 μL. Low control wells included 1 μM of a potent B-Raf inhibitor as a control. The assays were incubated at ambient temperature (typically 22° C.) for 60 min and then read on a PerkinElmer EnVision microplate reader using standard TRF settings (λEx=320 nm, λEm=615 & 665 nm). The ratioed counts (665 nm/615 nm) were converted to percent of control (POC) using the following equation:
[formula] • where: • Xmax Average Uninhibited Controls • Xmin Average Background
A 4-parameter logistic model was the fit to the POC data for each compound. From that fit, the IC50 was estimated and is defined as the concentration of compound at which the best-fit curve crosses 50 POC.

[2] = MDR1 LLC-PK1 and BCRP MDCKII permeability assay: permeability coefficient (Papp); format: in vitro ADME
Text: as §1

A375 cells = experiment: Cellular phospho-ERK inhibition assay in A375 cells; format: cell-based; settings: Homo sapiens, A-375, A375 cells (head prints A357), 2 hours treatment, read-out: A357 cell IC50
Description: A375 and H1755 cells were obtained from the American Type Culture Collection (ATCC, Rockville, MD). A375 cells were maintained in DMEM growth medium containing 10% FBS. H1755 cells were maintained in RPMI growth medium containing 10% FBS.
Cells were harvested according to standard protocols, counted and plated onto flat-bottom, 96-well tissue culture plates (Costar #3599) at 2.5×10^4 cells/well for A375 cells and 1.5×10^4 cells/well for H1755 cells in 100 μL/well of growth medium containing 10% FBS. After an overnight incubation at 37° C. with 5% CO2 cells were treated for 2 hours at 37° C., 5% CO2 with compounds prepared as a 9-point, 1:3.33 fold dilution series with final compound concentrations ranging from 66 pM-10 μM and a constant DMSO concentration of 0.25%. Control wells contained either 0.25% DMSO alone (uninhibited control) or 10 μM binimetinib (complete inhibition control). The levels of phosphorylated ERK are determined using an In Cell Western protocol: following compound incubation, growth medium was discarded, and cells were fixed with 0.4% formaldehyde in PBS for 20 minutes at room temperature. Cells were permeabilized with 100% methanol for 10 minutes at room temperature. Plates were washed with PBS containing 0.05% Tween-20 and blocked for 1 hour at room temperature with LI-COR Blocking Buffer (LI-COR Biosciences; Cat #927-40000). Plates were then incubated for 2 hours at room temperature with 50 μL of a 1:400 dilution of anti-phospho-ERK1/2 (Thr202/Tyr204) (Cell Signaling; Cat #9101) and a 1:1000 dilution of anti-GAPDH (Millipore; Cat #MAB374) in LI-COR blocking buffer containing 0.05% Tween-20. Plates were washed with PBS containing […] Tween-20 then incubated at room temperature for 1 hour with 50 μL of a 1:1000 dilution of anti-rabbit AlexaFluor 680 (Life Technologies; Cat #A21109) and a 1:1000 dilution of anti-mouse IRDye 800CW (LI-COR; Cat #926-32210) in LI-COR blocking buffer containing 0.05% Tween-20. Plates were analyzed by reading on an Odyssey CLx infrared scanner. For each well, the phospho-ERK signal was normalized to the GAPDH signal and converted to POC using the following equation:
[formula] • Where: • Xmax Average Uninhibited Controls • Xmin Average Complete Inhibition Controls IC50 values were then calculated using a 4-parameter fit in XLfit software and are provided in Table A1.

Chain of full-length FLAG-tagged B-Raf(V600E) (P15056 whole entry V600E): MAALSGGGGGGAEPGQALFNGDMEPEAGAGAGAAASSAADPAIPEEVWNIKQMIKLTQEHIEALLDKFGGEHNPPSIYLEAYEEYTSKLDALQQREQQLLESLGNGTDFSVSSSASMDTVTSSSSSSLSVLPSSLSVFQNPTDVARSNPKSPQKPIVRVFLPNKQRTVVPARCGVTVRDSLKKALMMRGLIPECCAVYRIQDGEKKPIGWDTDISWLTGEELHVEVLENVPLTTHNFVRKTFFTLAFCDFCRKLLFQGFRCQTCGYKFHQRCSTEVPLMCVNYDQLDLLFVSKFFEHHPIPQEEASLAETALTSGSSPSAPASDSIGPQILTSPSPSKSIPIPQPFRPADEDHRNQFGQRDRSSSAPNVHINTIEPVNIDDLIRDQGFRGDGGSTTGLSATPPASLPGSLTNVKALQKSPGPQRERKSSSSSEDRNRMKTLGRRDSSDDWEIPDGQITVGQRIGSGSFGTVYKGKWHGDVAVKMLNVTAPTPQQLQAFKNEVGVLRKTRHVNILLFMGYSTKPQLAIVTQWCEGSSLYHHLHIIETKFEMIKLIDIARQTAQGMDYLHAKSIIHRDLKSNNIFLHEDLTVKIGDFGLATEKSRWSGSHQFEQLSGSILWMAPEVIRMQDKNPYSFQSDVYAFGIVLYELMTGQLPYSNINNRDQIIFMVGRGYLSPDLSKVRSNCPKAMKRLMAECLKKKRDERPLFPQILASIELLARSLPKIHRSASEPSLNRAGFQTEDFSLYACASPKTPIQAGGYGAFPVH
Chain of BCRP (Q9UNQ0 whole entry): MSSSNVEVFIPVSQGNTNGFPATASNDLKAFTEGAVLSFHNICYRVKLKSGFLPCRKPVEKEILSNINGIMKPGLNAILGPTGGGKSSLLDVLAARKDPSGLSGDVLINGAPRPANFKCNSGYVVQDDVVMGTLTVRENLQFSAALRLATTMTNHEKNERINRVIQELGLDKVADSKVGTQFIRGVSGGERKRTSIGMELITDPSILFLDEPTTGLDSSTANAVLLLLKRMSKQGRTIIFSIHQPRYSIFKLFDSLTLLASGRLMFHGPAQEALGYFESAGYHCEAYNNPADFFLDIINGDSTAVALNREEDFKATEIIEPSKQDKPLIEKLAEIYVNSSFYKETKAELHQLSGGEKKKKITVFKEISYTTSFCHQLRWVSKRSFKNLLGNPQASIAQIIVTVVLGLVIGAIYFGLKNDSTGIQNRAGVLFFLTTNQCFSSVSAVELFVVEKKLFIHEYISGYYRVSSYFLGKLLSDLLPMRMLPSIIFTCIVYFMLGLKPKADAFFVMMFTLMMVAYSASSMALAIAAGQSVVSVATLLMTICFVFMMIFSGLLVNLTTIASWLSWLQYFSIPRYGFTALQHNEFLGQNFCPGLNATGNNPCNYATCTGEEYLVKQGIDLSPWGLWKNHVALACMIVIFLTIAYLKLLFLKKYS
Chain of P-gp (MDR1) (P08183 whole entry, species assumed): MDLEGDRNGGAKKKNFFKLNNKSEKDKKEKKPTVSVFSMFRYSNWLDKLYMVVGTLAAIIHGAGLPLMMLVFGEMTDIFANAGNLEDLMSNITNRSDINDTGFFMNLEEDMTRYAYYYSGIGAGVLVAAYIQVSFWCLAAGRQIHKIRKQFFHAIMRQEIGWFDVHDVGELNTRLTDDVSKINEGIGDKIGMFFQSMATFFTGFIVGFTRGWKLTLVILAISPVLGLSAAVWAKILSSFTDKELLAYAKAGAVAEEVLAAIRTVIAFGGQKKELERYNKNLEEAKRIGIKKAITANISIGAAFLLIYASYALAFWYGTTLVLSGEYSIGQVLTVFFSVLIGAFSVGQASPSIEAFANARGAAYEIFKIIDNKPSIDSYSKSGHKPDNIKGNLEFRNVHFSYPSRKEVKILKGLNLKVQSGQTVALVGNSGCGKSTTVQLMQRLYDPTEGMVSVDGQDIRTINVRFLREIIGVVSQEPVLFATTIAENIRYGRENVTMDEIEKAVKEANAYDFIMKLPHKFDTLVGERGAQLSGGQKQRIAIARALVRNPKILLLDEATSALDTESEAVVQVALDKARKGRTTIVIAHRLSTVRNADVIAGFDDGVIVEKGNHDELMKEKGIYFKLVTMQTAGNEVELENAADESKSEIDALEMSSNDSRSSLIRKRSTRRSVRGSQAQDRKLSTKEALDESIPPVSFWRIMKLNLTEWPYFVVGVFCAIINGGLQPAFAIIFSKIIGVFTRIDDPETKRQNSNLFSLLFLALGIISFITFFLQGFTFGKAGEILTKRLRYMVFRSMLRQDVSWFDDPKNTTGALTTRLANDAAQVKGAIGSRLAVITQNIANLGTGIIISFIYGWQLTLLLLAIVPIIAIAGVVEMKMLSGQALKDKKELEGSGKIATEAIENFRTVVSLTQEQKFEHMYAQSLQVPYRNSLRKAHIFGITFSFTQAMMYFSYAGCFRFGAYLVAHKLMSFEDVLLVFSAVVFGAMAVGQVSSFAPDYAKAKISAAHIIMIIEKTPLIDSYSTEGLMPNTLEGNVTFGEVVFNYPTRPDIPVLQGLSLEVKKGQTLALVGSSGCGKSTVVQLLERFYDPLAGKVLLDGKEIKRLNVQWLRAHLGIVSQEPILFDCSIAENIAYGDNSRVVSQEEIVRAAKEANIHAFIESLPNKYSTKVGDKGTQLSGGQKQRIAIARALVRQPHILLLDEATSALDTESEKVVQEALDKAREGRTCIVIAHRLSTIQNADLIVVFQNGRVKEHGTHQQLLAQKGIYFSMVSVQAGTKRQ

Row | efflux ratio at 2 h, 1 µM (BCRP) | efflux ratio at 2 h, 1 µM (P-gp (MDR1)) | IC50 [1] [nM] | Papp at 2 h, 1 µM [2] [×10⁻⁶ cm/s] | IC50 (A375 cells) [nM] | Structure (SMILES)
1 | 1 | 1.5 | 114 | 34 | 189 | CO[C@H]1CN(S(=O)(=O)Nc2ccc(F)c(Nc3ccc4ncn(C)c(=O)c4c3C)c2Cl)C[C@@H]1F (relative stereo) [Example 78, (trans)-N-(2-chloro-3-((3,5-dimethyl-4-oxo-3,4-dihydroquinazolin-6-yl)amino)-4-fluorophenyl)-3-fluoro-4-methoxypyrrolidine-1-sulfonamide]
2 | – | – | 299 | – | 195 | Cc1c(Nc2c(F)ccc(NS(=O)(=O)N(C)C3CCOC3)c2Cl)ccc2ncn(C)c(=O)c12 (centres unmarked) [Example 72, N-(2-chloro-3-((3,5-dimethyl-4-oxo-3,4-dihydroquinazolin-6-yl)amino)-4-fluorophenyl)-(N-methyl-N-(tetrahydrofuran-3-yl))-sulfamide]
3 | – | – | 234 | – | 121 | Cc1c(Nc2c(F)ccc(NS(=O)(=O)N(C)C3CC3)c2Cl)ccc2ncn(C)c(=O)c12 [Example 73, N-(2-chloro-3-((3,5-dimethyl-4-oxo-3,4-dihydroquinazolin-6-yl)amino)-4-fluorophenyl)-(N-cyclopropyl-N-methyl)-sulfamide]
4 | – | – | 203 | – | 160 | Cc1c(Nc2c(F)ccc(NS(=O)(=O)N(C)C3CCC3)c2Cl)ccc2ncn(C)c(=O)c12 [Example 74, N-(2-chloro-3-((3,5-dimethyl-4-oxo-3,4-dihydroquinazolin-6-yl)amino)-4-fluorophenyl)-(N-cyclobutyl-N-methyl)-sulfamide]
5 | – | – | 191 | – | 114 | COC1CCN(S(=O)(=O)Nc2ccc(F)c(Nc3ccc4ncn(C)c(=O)c4c3C)c2Cl)CC1 [Example 75, N-(2-chloro-3-((3,5-dimethyl-4-oxo-3,4-dihydroquinazolin-6-yl)amino)-4-fluorophenyl)-4-methoxypiperidine-1-sulfonamide trifluoroacetate]
6 | – | – | 183 | – | 622 | Cc1c(Nc2c(F)ccc(NS(=O)(=O)N3CCC(C(F)(F)F)C3)c2Cl)ccc2ncn(C)c(=O)c12 (centres unmarked) [Example 76, N-(2-chloro-3-((3,5-dimethyl-4-oxo-3,4-dihydroquinazolin-6-yl)amino)-4-fluorophenyl)-3-(trifluoromethyl)pyrrolidine-1-sulfonamide trifluoroacetate]
7 | – | – | 177 | – | 127 | Cc1c(Nc2c(F)ccc(NS(=O)(=O)N3CCC(O)CC3)c2Cl)ccc2ncn(C)c(=O)c12 [Example 77, N-(2-chloro-3-((3,5-dimethyl-4-oxo-3,4-dihydroquinazolin-6-yl)amino)-4-fluorophenyl)-4-hydroxypiperidine-1-sulfonamide trifluoroacetate]
8 | 0.6 | – | 103 | – | 311 | Cc1c(Nc2c(F)ccc(NS(=O)(=O)N3CCC4CC4C3)c2Cl)ccc2ncn(C)c(=O)c12 (centres unmarked) [Example 80]
9 | – | – | 75 | – | 133 | Cc1c(Nc2c(F)ccc(NS(=O)(=O)N3CC4CCC3C4)c2Cl)ccc2ncn(C)c(=O)c12 (centres unmarked) [Example 81, N-(2-chloro-3-((3,5-dimethyl-4-oxo-3,4-dihydroquinazolin-6-yl)amino)-4-fluorophenyl)-2-azabicyclo[2.2.1]heptane-2-sulfonamide trifluoroacetate]
10 | 3.9 | 2.6 | – | 16 | 45 | Cn1cnc2ccc(Nc3c(F)ccc(NS(=O)(=O)N4CC(OC(F)F)C4)c3Cl)c(Cl)c2c1=O [Example 143, N-(2-chloro-3-((5-chloro-3-methyl-4-oxo-3,4-dihydroquinazolin-6-yl)amino)-4-fluorophenyl)-3-(difluoromethoxy)azetidine-1-sulfonamide]
11 | – | 5.2 | 10 | 27 | 33 | Cn1cnc2ccc(Nc3c(F)ccc(NS(=O)(=O)N4CC(OC(F)F)C4)c3Cl)c(F)c2c1=O [Example 144, N-(2-chloro-4-fluoro-3-((5-fluoro-3-methyl-4-oxo-3,4-dihydroquinazolin-6-yl)amino)phenyl)-3-(difluoromethoxy)azetidine-1-sulfonamide]
12 | – | 6.9 | 27 | 17 | 31 | Cc1c(Nc2c(F)ccc(NS(=O)(=O)N3CC(C#N)C3)c2Cl)ccc2ncn(C)c(=O)c12 [Example 146, N-(2-chloro-3-((3,5-dimethyl-4-oxo-3,4-dihydroquinazolin-6-yl)amino)-4-fluorophenyl)-3-cyanoazetidine-1-sulfonamide trifluoroacetate]
13 | – | 1 | 19 | 28 | 67 | Cc1c(Nc2c(F)ccc(NS(=O)(=O)N3CC(C)C3)c2Cl)ccc2ncn(C)c(=O)c12 [Example 147, N-(2-chloro-3-((3,5-dimethyl-4-oxo-3,4-dihydroquinazolin-6-yl)amino)-4-fluorophenyl)-3-methylazetidine-1-sulfonamide trifluoroacetate]
14 | – | – | 71 | – | 310 | Cc1c(Nc2c(F)ccc(NS(=O)(=O)N3CCC4CC43)c2Cl)ccc2ncn(C)c(=O)c12 (centres unmarked) [Example 153, N-(2-chloro-3-((3,5-dimethyl-4-oxo-3,4-dihydroquinazolin-6-yl)amino)-4-fluorophenyl)-2-azabicyclo[3.1.0]hexane-2-sulfonamide trifluoroacetate]
15 | – | – | 202 | – | 872 | Cc1c(Nc2c(F)ccc(NS(=O)(=O)N3CC(COC(F)(F)F)C3)c2Cl)ccc2ncn(C)c(=O)c12 [Example 156, N-(2-chloro-3-((3,5-dimethyl-4-oxo-3,4-dihydroquinazolin-6-yl)amino)-4-fluorophenyl)-3-((trifluoromethoxy)methyl)azetidine-1-sulfonamide trifluoroacetate]
16 | – | – | 114 | – | 1280 | Cc1c(Nc2c(F)ccc(NS(=O)(=O)N3CC(OC(F)(F)F)C3)c2Cl)ccc2ncn(C)c(=O)c12 [Example 162, N-(2-chloro-3-((3,5-dimethyl-4-oxo-3,4-dihydroquinazolin-6-yl)amino)-4-fluorophenyl)-3-(trifluoromethoxy)azetidine-1-sulfonamide]
17 | – | – | 113 | – | 1400 | Cc1c(Nc2c(F)ccc(NS(=O)(=O)N3CC(COCF)C3)c2Cl)ccc2ncn(C)c(=O)c12 [Example 164, N-(2-chloro-3-((3,5-dimethyl-4-oxo-3,4-dihydroquinazolin-6-yl)amino)-4-fluorophenyl)-3-((fluoromethoxy)methyl)azetidine-1-sulfonamide trifluoroacetate]

Row | Structure (SMILES) | efflux ratio at 2 h, 1 µM (BCRP) | efflux ratio at 2 h, 1 µM (P-gp (MDR1)) | IC50 [1] [nM] | Papp at 2 h, 1 µM [2] [×10⁻⁶ cm/s] | IC50 (A375 cells) [nM]
18 | Cc1c(Nc2c(F)ccc(NS(=O)(=O)N3CC4(CCC4)C3)c2Cl)ccc2ncn(C)c(=O)c12 [Example 157, N-(2-chloro-3-((3,5-dimethyl-4-oxo-3,4-dihydroquinazolin-6-yl)amino)-4-fluorophenyl)-2-azaspiro[3.3]heptane-2-sulfonamide trifluoroacetate] | 1.2 | 1.2 | – | 23 | 886
